Assay results reported in patent US11174250B2, “Substituted carboxamides as inhibitors of WDR5 protein-protein binding” (PROPELLON THERAPEUTICS INC., priority 2016, dated 2021).
Where two headings read alike, the source gives them in different places.

Molecular target: WDR5 protein (Homo sapiens (Human), UniProt P61964)
Experiment: Surface Plasmon Resonance (SPR) assay
Assay type: binding
Conditions: for residence time: τ=1/koff, read-out: Residence Time (t, min)
[1] = SPR, Table 1, read-out: WDR5 binding affinity (KD)
[2] = SPR, Table 2, read-out: WDR5 binding affinity SPR (KD)

Row | Compound | Kd [1] [nM] | Kd [2] [nM] | residence time (SPR) [min] | Kd (Table 4, effect of Fluoro-substitution, read-out: KD (SPR)) [nM]
1 | COc1cc(C(F)(F)F)c(C(=O)Nc2cc(-c3cc(CN4CCC(F)CC4)ccc3F)ccc2N2CCN(C)CC2)cn1 [Example 55, N-(2′-fluoro-5′-((4-fluoropiperidin-1-yl)methyl)-4-(4-methylpiperazin-1-yl)-[1,1′-biphenyl]-3-yl)-6-methoxy-4-(trifluoromethyl)nicotinamide] | > 200 | > 200 |  | 
2 | CN1CCN(c2ccc(-c3cc(OC(F)(F)F)ccc3F)cc2NC(=O)c2c[nH]c(=O)cc2C(F)(F)F)CC1 [Example 5, N-(2′-fluoro-4-(4-methylpiperazin-1-yl)-5′-(trifluoromethoxy)-[1,1′-biphenyl]-3-yl)-6-oxo-4-(trifluoromethyl)-1,6-dihydropyridine-3-carboxamide] | 29 | 29 | 1.88 | 
3 | C[C@@H]1CN(c2ccc(-c3cc(C(N)=O)ccc3F)cc2NC(=O)c2c[nH]c(=O)cc2C(F)(F)F)C[C@H](C)N1C [Example 119, N-(5′-carbamoyl-2′-fluoro-4-((3S,5R)-3,4,5-trimethylpiperazin-1-yl)-[1,1′-biphenyl]-3-yl)-6-oxo-4-(trifluoromethyl)-1,6-dihydropyridine-3-carboxamide] | 3.7 | 4 | 2.8 | 
4 | C[C@@H]1CN(c2ccc(-c3c(F)ccc(C#N)c3F)cc2NC(=O)c2c[nH]c(=O)cc2C(F)(F)F)C[C@H](C)N1C [Example 78, N-(3′-cyano-2′,6′-difluoro-4-((3S,5R)-3,4,5-trimethylpiperazin-1-yl)-[1,1′-biphenyl]-3-yl)-6-oxo-4-(trifluoromethyl)-1,6-dihydropyridine-3-carboxamide] | 39 | 39 | 2.5 | 
5 | CN1CCCN(c2ccc(-c3cc(CN4CCOCC4)ccc3F)cc2NC(=O)c2c[nH]c(=O)cc2C(F)(F)F)CC1 [Example 88, N-(2′-fluoro-4-(4-methyl-1,4-diazepan-1-yl)-5′-(morpholinomethyl)-[1,1′-biphenyl]-3-yl)-6-oxo-4-(trifluoromethyl)-1,6-dihydropyridine-3-carboxamide] | 18 | 18 | 1.71 | 
6 | CC(=O)Nc1cc(C)c(C(=O)Nc2cc(-c3cc(CN4CCOCC4)ccc3F)ccc2N2CCN(C)CC2)cn1 [Example 106, 6-acetamido-N-(2′-fluoro-4-(4-methylpiperazin-1-yl)-5′-(morpholinomethyl)-[1,1′-biphenyl]-3-yl)-4-methylnicotinamide] | 8.3 | 829 | 3.2 | 
7 | CN(C)C1CCN(c2ccc(-c3cc(CN4CCOCC4)ccc3F)cc2NC(=O)c2cn(C)c(=O)cc2C(F)(F)F)C1 (stereo not shown) [Example 101, N-(4-(3-(dimethylamino)pyrrolidin-1-yl)-2′-fluoro-5′-(morpholinomethyl)-[1,1′-biphenyl]-3-yl)-1-methyl-6-oxo-4-(trifluoromethyl)-1,6-dihydropyridine-3-carboxamide] | 2270 | 2270 |  | 
8 | C[C@@H]1CN(c2ccc(-c3cc(CNC4CCCCC4)c(F)cc3F)cc2NC(=O)c2c[nH]c(=O)cc2C(F)(F)F)C[C@H](C)N1C [Example 79, N-(5′-((cyclohexylamino)methyl)-2′,4′-difluoro-4-((3S,5R)-3,4,5-trimethylpiperazin-1-yl)-[1,1′-biphenyl]-3-yl)-6-oxo-4-(trifluoromethyl)-1,6-dihydropyridine-3-carboxamide] | 2.5 | 2.5 | 16.4 | 
9 | COc1cc(C(F)(F)F)c(C(=O)Nc2cc(-c3cc(CN4CCN(C(C)=O)CC4)ccc3F)ccc2N2CCN(C)CC2)cn1 [Example 54, N-(5′-((4-acetylpiperazin-1-yl)methyl)-2′-fluoro-4-(4-methylpiperazin-1-yl)-[1,1′-biphenyl]-3-yl)-6-methoxy-4-(trifluoromethyl)nicotinamide] | > 200 | > 200 |  | 
10 | CN1CCN(c2ccc(-c3cc(CN4CCOCC4)ccc3F)cc2NC(=O)c2cc(F)cc3[nH]cnc23)CC1 [Example 102, 6-fluoro-N-(2′-fluoro-4-(4-methylpiperazin-1-yl)-5′-(morpholinomethyl)-[1,1′-biphenyl]-3-yl)-1H-benzo[d]imidazole-4-carboxamide] | > 200 | > 200 |  | 
11 | Cc1cc(C(=O)Nc2cc(-c3cc(CN4CCOCC4)ccc3F)ccc2N2CCCN(C)CC2)cc(C)c1F [Example 92, 4-fluoro-N-(2′-fluoro-4-(4-methyl-1,4-diazepan-1-yl)-5′-(morpholinomethyl)-[1,1′-biphenyl]-3-yl)-3,5-dimethylbenzamide] | 394 | 394 |  | 
12 | COc1cc(C(F)(F)F)c(C(=O)Nc2cc(-c3cc(CN4CCN(CC5CC5)CC4)ccc3F)ccc2N2CCN(C)CC2)cn1 [Example 107, N-(5′-((4-(cyclopropylmethyl)piperazin-1-yl)methyl)-2′-fluoro-4-(4-methylpiperazin-1-yl)-[1,1′-biphenyl]-3-yl)-6-methoxy-4-(trifluoromethyl)nicotinamide] | > 200 | > 200 |  | 
13 | CN1CCN(c2ccc(-c3cc(CN4CCOCC4)ccc3Cl)cc2NC(=O)c2c[nH]c(=O)cc2C(F)(F)F)CC1 [drawing 288, reference compound] |  |  |  | 34.5
14 | COc1cc(C(F)(F)F)c(C(=O)Nc2cc(-c3cc(CN4CCC(N5CCOCC5)CC4)ccc3F)ccc2N2CCN(C)CC2)cn1 [Example 52, N-(2′-fluoro-4-(4-methylpiperazin-1-yl)-5′-((4-morpholinopiperidin-1-yl)methyl)-[,1′-biphenyl]-3-yl)-6-methoxy-4-(trifluoromethyl)nicotinamide] | > 200 | > 200 |  | 
15 | CN1CCN(c2ccc(-c3ccc(N4CCCC4)nc3F)cc2NC(=O)c2c[nH]c(=O)cc2C(F)(F)F)CC1 [Example 22, N-(5-(2-fluoro-6-(pyrrolidin-1-yl)pyridin-3-yl)-2-(4-methylpiperazin-1-yl)phenyl)-6-oxo-4-(trifluoromethyl)-1,6-dihydropyridine-3-carboxamide] | 17 | 17 | 2.3 | 
16 | CN1CCN(c2ccc(-c3cc(CN4CCOCC4)ccc3F)cc2NC(=O)c2n[nH]c(=O)cc2C(F)(F)F)CC1 [Example 20, N-(2′-fluoro-4-(4-methylpiperazin-1-yl)-5′-(morpholinomethyl)-[1,1′-biphenyl]-3-yl)-6-oxo-4-(trifluoromethyl)-1,6-dihydropyridazine-3-carboxamide] | 76 | 76 | 0.41 | 
17 | COc1cc(C(F)(F)F)c(C(=O)Nc2cc(-c3cc(CN4CC[C@@H](S(C)(=O)=O)C4)ccc3F)ccc2N2CCN(C)CC2)cn1 [Example 57, (R)—N-(2′-fluoro-4-(4-methylpiperazin-1-yl)-5′-((3-(methylsulfonyl)pyrrolidin-1-yl)methyl)-[1,1′-biphenyl]-3-yl)-6-methoxy-4-(trifluoromethyl)nicotinamide] | > 200 | > 200 |  | 
18 | Cc1cc(C(=O)Nc2cc(-c3cc(CN4CCOCC4)ccc3F)ccc2N2CCC(N(C)C)C2)cc(C)c1F (stereo not shown) [Example 91, N-(4-(3-(dimethylamino)pyrrolidin-1-yl)-2′-fluoro-5′-(morpholinomethyl)-[1,1′-biphenyl]-3-yl)-4-fluoro-3,5-dimethylbenzamide] | 316 | 316 |  | 
